# Data as given in patent US20040077591A1, “Histone deacetylase inhibitors for the treatment of multiple sclerosis, amyotrophic lateral sclerosis and Alzheimer's Disease” (The Brigham and Women's Hospital, Inc., priority 2002, published 2004).
# Marks after values point to notes of the source that are not given here.
# Experiments:
# [1] = tested on: spleen tissue from EAE mice; test: Quantitative RT-PCR on spleen tissue of EAE mice; assay type: in vivo; settings: TSA-treated EAE mice
# Description: FIG. 8—Identification of gene expression changes induced by HDAC inhibitors in vivo, using reverse transcriptase polymerase chain reaction (RT-PCR). CNS and spleen tissue samples from EAE mice were used to isolate RNA. One step real time quantitative RT-PCR (QRT-PCR) was then performed in triplicate for each sample (n=3 per group of mice) with SYBR Green and an ABI Prism 7700 Sequence Detection System (PE Applied Biosystems, Foster City, Calif.).
# d) Quantitative RT-PCR (QRT-PCR) on CNS and spleen tissues from TSA-treated EAE mice detects numerous genes modulated by this HDAC inhibitor. […] QRT-PCR unveiled new CNS effects of TSA (FIG. 8), including upregulation of the neuronal trait genes sodium channel Nav1.2 and dopamine β hydroxylase (Dbh), and downregulation of the pro-apoptotic factors caspase 2 (casp2) and apoptosis inducing factor (Aif). In spleen tissues, QRT-PCR confirmed elevation of Ifna7 and Adipsin and downregulation of Igκ V22 mRNAs, and unveiled downregulation by TSA of multiple inflammatory factors, such as IL-8 receptor, IL-2 receptor, IL-12, and the costimulatory molecule CD28, from pathways implicated in MS (Glabinsk and Ransohoff, 2001; Dangond, 2002).
# [2] = tested on: experimental autoimmune encephalomyelitis (EAE) in mice; test: MOG-induced EAE in mice, clinical disability scoring; assay type: in vivo, C57BL/6 female mice; settings: for EAE clinical disability: TSA 7.5 mg/kg/dose/d i.p., apparent in the chronic (days 20-40) phase
# Text: FIG. 1—Efficacy of HDAC inhibitor treatment in reducing the clinical manifestations of experimental autoimmune encephalomyelitis (EAE) in mice. Mean clinical scores reflect reduced clinical disability by TSA in the neurodegenerative phase of EAE (● TSA-treated; ◯ vehicle-treated) (*P<0.05 by Fisher's protected least significant difference (PLSD) test). The remission phase lasted from days 19 to 34 following disease induction in a first experiment, days 21 to 32 in a second experiment. Animals were scored for signs of disability using the following widely used scale: 1, limp tail or isolated weakness of gait without limp tail; 2, partial hind leg paralysis; 3, total hind leg or partial hind and front leg paralysis and/or urinary incontinence; 4, total hind leg and partial front leg paralysis; 5, moribund or dead animal (with minor modifications from Issazadeh et al. (1998)). The definitions used were: (1) mean peak remission: mean of maximal score reached during remission, and (2) mean % days of severity: mean % of days with scores ≧2.
# Experimental autoimmune encephalomyelitis (EAE) is the most widely accepted animal model for multiple sclerosis. […] Medications that currently modify the disease course in humans also modify the disease course in the animal model. The inventor has used the C57BL/6J mice (female mice 6-8 weeks old from Jackson Laboratories) for the experiments, which involve the administration of myelin oligodendrocyte glycoprotein (MOG), a myelin antigen, that induces autoimmunity against the brain tissue. EAE can also be induced in laboratory mice and rats using other myelin antigens.
# Efficacy of HDAC inhibitor treatment in reducing the clinical manifestations of experimental autoimmune encephalomyelitis (EAE) in mice. The inventor injected 6-8 week-old C57BL/6 female mice (Jackson Laboratories, Bar Harbor, Me.) subcutaneously with 150 μg myelin oligodendrocyte glycoprotein (MOG)35-55 peptide (Quality Controlled Biochemicals, Hopkinton, Mass.) in PBS and CFA containing 0.4 mg of Mycobacterium tuberculosis (H37Ra, Difco, Detroit, Mich.), and i.p. on days 1 and 3 with 200 ng Pertussis (List Biological, Campbell, Calif.). TSA (7.5 mg/kg/dose/d i.p.) (Biomol, Plymouth Meeting, Pa. and Wako, Richmond, Va.) in PBS (9):DMSO (1) vehicle was begun on day 4. Ten mice were given vehicle and 9 were given TSA in a first experiment, wherease a second experiment utilized 15 per group.
# EAE mice spleens = test: DNA microarray analysis of EAE mice spleens; assay type: in vivo
# Text: (2) Modulation of genes involved in neuroprotection and immune regulation by TSA. a) Microarrays detect protective genes regulated by TSA in EAE mice spinal cords. The inventor pooled RNA from tissues of three animals in each group (TSA treated and vehicle-treated) for DNA microarray analysis. As shown (Table 3), intraperitoneal TSA led to the enhanced expression of mRNAs for the antioxidant glutathione peroxidase (Gpx1) and the neuroprotective insulin-like growth factor 2 (Igf2). […] Intraperitoneal TSA also led to decreased expression in EAE spinal cords of the chemokine receptor CCR6, immunoglobulin V(H)II, the vascular homeostasis-related phospholipase A2, and upregulation of the immunomodulatory factor interferon-α2 (Ifna2), the latter with known beneficial effects in MS patients.
# b) Microarrays detect protective genes regulated by TSA in EAE mice spleens. The inventor had previously shown that HDAC mRNAs are elevated in immune cells after stimulation with mitogens or α-CD3 Ab (Dangond et al., 1998) and that HDAC inhibitors block proliferation (Dangond and Gullans, 1998). HDAC inhibition also downregulates pro-inflammatory molecules, including γ-IFN (Dangond and Gullans, 1998), IL-12 (Saemann et al., 2000), IL-12 receptor (Saemann et al., 2000), B7-1 (Bohmig et al., 1997) and TNF-α (Nancey et al., 2002). […] A known histone deacetylase-binding chaperone, 14-3-3 sigma, is also elevated in spleens.
# Microarrays detect protective genes co-regulated by TSA in EAE mice spinal cords and spleens.
compound,measurement,setting,value
"CC(/C=C/C(=O)NO)=C\[C@@H](C)C(=O)c1ccc(N(C)C)cc1 [TSA, Trichostatin A]",Adipsin mRNA by QRT-PCR,[1],elevation
same,CD28 mRNA by QRT-PCR,[1],downregulation
same,IL-2 receptor mRNA by QRT-PCR,[1],downregulation
same,IL-8 receptor mRNA by QRT-PCR,[1],downregulation
same,IL-12 mRNA by QRT-PCR,[1],downregulation
same,Ifna7 mRNA by QRT-PCR,[1],elevation
same,Igκ V22 mRNA by QRT-PCR,[1],downregulation
same,Mean % Days of Severity (mean % of days with scores ≧2),"[2]; TSA 7.5 mg/kg/dose/d i.p. from day 4, P = 0.0011 vs vehicle",33.9 ± 4.3** %
same,Days of Onset (Clinical EAE),"[2]; TSA 7.5 mg/kg/dose/d i.p. from day 4, two separate exp. pooled",13 ± 0.5 days
same,EAE clinical disability,[2],decrease in EAE clinical disability
same,EAE clinical disability,[2]; listed as Trichostatin A,effective in reducing EAE in mice
same,Mean Peak Remission Phase (mean of maximal score reached during remission),"[2]; clinical score scale 1-5, TSA 7.5 mg/kg/dose/d i.p. from day 4, P = 0.0036 vs vehicle",1.8 ± 0.1*
same,"Fold Δ Spleen, Paired box gene 4 (Pax4)","EAE mice spleens; Table 5, probe set AB010557, i.p. TSA, EAE mice spleen",−2.4 fold
same,"Fold Δ Spleen, Axin","EAE mice spleens; Table 5, probe set AF009011, i.p. TSA, EAE mice spleen",2.1 fold
same,"Fold Δ Spleen, DNA methyltransferase (Dnmt1)","EAE mice spleens; Table 5, probe set AF036008, i.p. TSA, EAE mice spleen",−3.2 fold
same,"Fold Δ Spleen, Metaxin homolog","EAE mice spleens; Table 5, probe set AV108173, i.p. TSA, EAE mice spleen",−4 fold
same,"Fold Δ Spleen, Thromboxane A2 receptor (Tbxa2r)","EAE mice spleens; Table 5, probe set D10849, i.p. TSA, EAE mice spleen",−4.9 fold
same,"Fold Δ Spleen, Growth differentiation factor (Gdf9)","EAE mice spleens; Table 5, probe set L06444, i.p. TSA, EAE mice spleen",5.4 fold
same,"Fold Δ Spleen, Neurofilament heavy (Nefh)","EAE mice spleens; Table 5, probe set M35131, i.p. TSA, EAE mice spleen",2.2 fold
same,"Fold Δ Spleen, Snail homolog 1 (Snail1)","EAE mice spleens; Table 5, probe set M95604, i.p. TSA, EAE mice spleen",2.9 fold
same,"Fold Δ Spleen, Dishevelled 2 (Dvl2)","EAE mice spleens; Table 5, probe set U24160, i.p. TSA, EAE mice spleen",−3.6 fold
same,"Fold Δ Spleen, Rearranged in lymphoma (Frat1)","EAE mice spleens; Table 5, probe set U58974, i.p. TSA, EAE mice spleen",5.4 fold
same,"Fold Δ Spleen, Immunoglobulin H and L variable","EAE mice spleens; Table 5, probe set U62386, i.p. TSA, EAE mice spleen",−2.5 fold
same,"Fold Δ Spleen, Cyclin D-interacting Dmp1 (Dmtf1)","EAE mice spleens; Table 5, probe set U70017, i.p. TSA, EAE mice spleen",5.2 fold
same,"Fold Δ Spleen, Neuronal PAS domain 1 (Npas1)","EAE mice spleens; Table 5, probe set U77967, i.p. TSA, EAE mice spleen",−3.5 fold
same,"Fold Δ Spleen, Phospholipase C-beta-1b (Picb1)","EAE mice spleens; Table 5, probe set U85714, i.p. TSA, EAE mice spleen",3.7 fold
same,"Fold Δ Spleen, Glutathione peroxidase (Gpx1)","EAE mice spleens; Table 5, probe set X03920, i.p. TSA, EAE mice spleen",2.3 fold
same,"Fold Δ Spleen, Immunoglobulin kappa chain (1gk-V20)","EAE mice spleens; Table 5, probe set X16678, i.p. TSA, EAE mice spleen",−2.3 fold
same,"Fold Δ Spleen, Paired box gene 2 (Pax2)","EAE mice spleens; Table 5, probe set X55781, i.p. TSA, EAE mice spleen",2.1 fold
same,"Fold Δ Spleen, Max binding protein ROX (Mnt)","EAE mice spleens; Table 5, probe set Y07609, i.p. TSA, EAE mice spleen",−3.5 fold
same,"Fold Change, 14-3-3 sigma","EAE mice spleens; probe set 96704, spleen, I.P. TSA vs vehicle-treated EAE mice",3.9 fold
same,"Fold Change, Parvalbumin (Pva)","EAE mice spleens; probe set 96719, spleen, I.P. TSA vs vehicle-treated EAE mice",6.3 fold
same,"Fold Change, IgH variable","EAE mice spleens; probe set 96970, spleen, I.P. TSA vs vehicle-treated EAE mice",−3.9 fold
same,"Fold Change, Igκ-V22","EAE mice spleens; probe set 97570, spleen, I.P. TSA vs vehicle-treated EAE mice",−4.4 fold
same,"Fold Change, IgA VDJH","EAE mice spleens; probe set 99420, spleen, I.P. TSA vs vehicle-treated EAE mice",−2.8 fold
same,"Fold Change, Adipsin (Adn)","EAE mice spleens; probe set 99671, spleen, I.P. TSA vs vehicle-treated EAE mice",9.0 fold
same,"Fold Change, Galanin receptor 1 (Galr1)","EAE mice spleens; probe set 99837, spleen, I.P. TSA vs vehicle-treated EAE mice",−4.2 fold
same,"Fold Change, IgE H constant","EAE mice spleens; probe set 99850, spleen, I.P. TSA vs vehicle-treated EAE mice",−3.1 fold
same,"Fold Change, Kallikrein (Klk)","EAE mice spleens; probe set 100060, spleen, I.P. TSA vs vehicle-treated EAE mice",2.8 fold
same,"Fold Change, Lactotransferrin (Ltf)","EAE mice spleens; probe set 101115, spleen, I.P. TSA vs vehicle-treated EAE mice",−8.2 fold
same,"Fold Change, IgG rearranged κ","EAE mice spleens; probe set 101616, spleen, I.P. TSA vs vehicle-treated EAE mice",−4.5 fold
same,"Fold Change, IgG variable","EAE mice spleens; probe set 101752, spleen, I.P. TSA vs vehicle-treated EAE mice",−8.2 fold
same,"Fold Change, V kappa and J kappa coding joint","EAE mice spleens; probe set 101826, spleen, I.P. TSA vs vehicle-treated EAE mice",−4.2 fold
same,"Fold Change, γ-1 Ig Constant","EAE mice spleens; probe set 101870, spleen, I.P. TSA vs vehicle-treated EAE mice",−5.0 fold
same,"Fold Change, Interferon alpha 7 (Ifna7)","EAE mice spleens; probe set 102149, spleen, I.P. TSA vs vehicle-treated EAE mice",5.8 fold
same,"Fold Change, IgH gene DJC","EAE mice spleens; probe set 102843, spleen, I.P. TSA vs vehicle-treated EAE mice",−3.6 fold
same,"Fold Change, Snail homolog","EAE mice spleens; probe set 103830, spleen, I.P. TSA vs vehicle-treated EAE mice",3.0 fold
